Reference: patent US6590093B1, “Orthoester protecting groups” (Dharmacon, Inc., priority 1998, dated 2003)

Key:
[1] = buffer, pH 2
[2] = acid lability (half life) of the 2′-orthoester protecting group on uridine; conditions: pH 2, 25° C.; after ester hydrolysis of the ACE orthoester

half life [1]: < 45 s
times more labile (than 2′-ACE-uridine) [2]: 10 times
Structure (SMILES): O=c1ccn(C2OC(CO)C(O)C2OC(OCCO)OCCO)c(=O)[nH]1 (centres unmarked) [2′-modified uridine]
